One assay deals with bacteria. Briefly: Minimum inhibitory concentration (MIC) assay, bacteria. Format: cell-based. Here is the method: (§1) The assays described below were used to measure the minimum inhibitory concentration (MIC) of a compound necessary to inhibit visible growth of the organism tested. These assays are adapted from NCCLS protocols M7-A4 and M27-A (NCCLS vol 17:9 and vol 17:2) as modified by Sandven, S., Clin. Micro. (1999) 37:12, p. 3856–3859. MIC values for Aspergillus species were determined using NCCLS protocol M38-P.
(§2) All compounds were dissolved in 100% DMSO to a stock concentration of 10 mM and used fresh stock compounds in powder form were kept frozen until needed and used freshly. When used for test purposes, compounds were diluted in the appropriate media depending on the organism being tested.
(§3) For yeast and aspergillus species, seven 1:2 serial dilutions of compound in appropriate media buffered with MOPS at pH 7.0 were prepared such that the final starting test compound concentrations were 44.4 μM for yeast and 50 μM aspergillus species. For bacteria, dilutions were made in growth media used for the particular bacteria being tested.
Five well-separated colonies from a 24 h Sabouraud Dextrose plate incubated at 35° C. were picked and resuspended into 2 mL of normal saline. The O.D.530 was read and the culture was adjusted to 0.5 McFarland units with normal saline. A 1:2000 dilution was made with RPMI 1640 media buffered with MOPS at pH 7.0 and 100 μL of this inoculum preparation was added to an equal volume of test compound-containing media. 25 μL of the redox indicator Alamar Blue (Biosource International) was added to each well and the plates were incubated for 48 h at 35° C. Wells having yeast growth changed color from blue to pink.
Inoculums are made in the same manner as yeast except all dilutions are made in normal saline, with a final dilution of 1:200 and an inoculum of 10 μL.

The next assay concerns Aspergillus species. The experiment in a line: Minimum inhibitory concentration (MIC) assay, filamentous fungi. The conditions noted are these: antifungal activity, lowest concentration at which 75% inhibition of growth is observed after 48 h. Format: cell-based. Here is the method: as §1, §2, §3
Inoculums are made by incubating Aspergillus species for 7 days at 35° C. on potato dextrose agar slants. Slants are then covered with 1.0 mL of 0.85% saline, one drop of Tween 20 is added and colonies are teased with a sterile transfer loop to create a suspension which is allowed to sit for 5 min so heavier particles can drop out. The upper suspension is separated and adjusted to an optical density of 0.09 to 0.11. The resulting suspension is diluted 1:50, which yields 2× the final inoculum needed. Micro dilution trays are prepared as with yeast and incubated for 48 h at 35° C. For our purposes the MIC is defined as the lowest compound concentration at which 75% inhibition of growth is observed after 48 h.

Counter-ions that a name gives are not always drawn. Some results are limits rather than exact numbers.

One may read the MIC as the smallest concentration in the dilution series that meets the test's criterion for growth inhibition. Read a high MIC as a need for much substance.

As to `CNC(=N)NCCNC(=O)c1ccc2[nH]c(C(=O)Nc3cc(C(=O)NCCNC(=N)NC)n(CC(C)C)c3)cc2c1` [Compound 81, 1H-Indole-2,5-dicarboxylic acid 2-({1−isobutyl-5-[2-(N′-methyl-guanidino)-ethylcarbamoyl]-1H-pyrrol-3-yl}amide) 5-{[2-(N′-methyl-guanidino)-ethyl]-amide}], the MIC was at most 45.5 µM with bacteria and at most 50 µM with Aspergillus species.
Taken in the same sequence, the figures for `CC/N=C(\NC)NCCNC(=O)c1ccc2[nH]c(C(=O)Nc3ccc4[nH]c(C(=O)NCCN/C(=N/CC)NC)cc4c3)cc2c1` [Compound 91, 1H-Indole-2,5-dicarboxylic acid 2-{[2-(N′-ethyl-N′-methylguanidino)ethyl]amide} 5-({2-[2-(N′-ethyl-N″-methylguanidino)ethylcarbamoyl]-1H-indol-5-yl}amide), dihydrochloride] were at most 45.5 µM and at most 50 µM.
Regarding `N=C(N)NCCNC(=O)c1ccc2[nH]c(C(=O)Nc3ccc4cc(C(=O)NCCNC(=N)c5ccccn5)[nH]c4c3)cc2c1` [Compound 180, 1H-Indole-2,5-dicarboxylic acid 5-[(2-guanidinoethyl)amide] 2-[(2-{2-[(pyridine-2-carboximidoyl)amino]ethylcarbamoyl}-1H-indol-6-yl)amide]], the MIC against bacteria is at most 45.5 µM; in the assay on Aspergillus species, at most 50 µM.
The like results for `C/N=C(\NC)NCCCNC(=O)c1ccc2[nH]c(C(=O)Nc3ccc4cc(C(=O)NCCN/C(=N/C)NC)[nH]c4c3)cc2c1` [Compound 54, 1H-Indole-2,5-dicarboxylic acid 2-({2-[2-(N′,N″-dimethylguanidino)ethylcarbamoyl]-1H-indole-6-yl}amide) 5-{[3-(N′,N″-dimethylguanidino)propyl]amide}dihydrochloride] were, in that order, at most 45.5 µM and at most 50 µM.
For `N=C(N)NCCNC(=O)c1ccc2[nH]c(C(=O)Nc3ccc4cc(C(=O)NCNC(=N)N)[nH]c4c3)cc2c1` [Compound 171, 1H-Indole-2,5-dicarboxylic acid 5-[(2-guanidino-ethyl)-amide] 2-{[2-(guanidinomethyl-carbamoyl)-1H-indol-6-yl]-amide}], the MIC was at most 45.5 µM in the assay with bacteria and at most 50 µM in the assay with Aspergillus species.
Taken in the same sequence, the figures for `CNC(=N)NCCNC(=O)c1ccc2[nH]c(C(=O)Nc3ccc4cc(C(=O)NCCNC(=N)NC)[nH]c4c3)cc2c1` [Compound 48, 1H-Indole-2,5-dicarboxylic acid 5-{[2-(N′-methyl-guanidino)-ethyl]-amide} 2-({2-[2-(N′methyl-guanidino)-ethylcarbamoyl]-1H-indol-6-yl}-amide)] were at most 45.5 µM and at most 50 µM.
The like results for `N=C(N)NCCNC(=O)c1ccc2[nH]c(C(=O)Nc3ccc4sc(C(=O)NCCNC(=N)N)cc4c3)cc2c1` [Compound 174, 1H-Indole-2,5-dicarboxylic acid 5-[(2-guanidino-ethyl)-amide] 2-{[2-(2-guanidino-ethylcarbamoyl)-benzo[b]thiophen-5-yl]-amide}] were, in that order, at most 45.5 µM and at most 50 µM.
`N=C(N)NC1CCC(NC(=O)c2cc3cc(NC(=O)c4ccc5[nH]c(C(=O)NC6CCC(NC(=N)N)CC6)cc5c4)ccc3[nH]2)CC1` (centres unmarked) [Compound 21, 1H-Indole-2,5-dicarboxylic acid 2-[(4-guanidino-cyclohexyl)-amide] 5-{[2-(4-guaizidino-cyclohexylcarbamoyl)-1H-indol-5-yl]-amide}]: the figures for the MIC in the assay with bacteria and against Aspergillus species were at most 45.5 µM and at most 50 µM, respectively.
Regarding `C/N=C(\N)NCCCNC(=O)c1ccc2[nH]c(C(=O)Nc3ccc4[nH]c(C(=O)NCCN/C(N)=N/C)cc4c3)cc2c1` [Compound 59, 1H-Indole-2,5-dicarboxylic acid 2-({2-[2-(N′methylguanidino)ethylcarbamoyl]-1H-indol-5-yl}amide) 5-{[3-(N′methylguanidino)propyl]amide}hydrochloride], the minimum inhibitory concentration (MIC) was at most 45.5 µM against bacteria and at most 50 µM with Aspergillus species.
Taken in the same sequence, the figures for `CNC(=N)NCCCNC(=O)c1ccc2[nH]c(C(=O)Nc3ccc4cc(C(=O)NCCCNC(=N)NC)[nH]c4c3)cc2c1` [Compound 73, 1H-Indole-2,5-dicarboxylic acid 5-[(3-(N′-methyl-guanidino)-propyl)-amide] 2-{[2-(3-(N′-methyl-guanidino)-propylcarbamoyl)-1H-indol-6-yl-]-amide}] were at most 45.5 µM and at most 50 µM.
Taken in the same sequence, the figures for `N=C(N)NCC1CCCC(CNC(=O)c2cc3cc(NC(=O)c4ccc5[nH]c(C(=O)NCC6CCCC(CNC(=N)N)C6)cc5c4)ccc3[nH]2)C1` (centres unmarked) [Compound 24, 1H-Indole-2,5-dicarboxylic acid 2-[(3-guanidinomethyl-cyclohexylmethyl)-amide] 5-({2-[(3-guanidinomethyl-cyclohexylmethyl)-carbamoyl}-1H-indol-5-yl}-amide)] were at most 45.5 µM and at most 50 µM.
The like results for `N=C(N)CCCNC(=O)c1cc2ccc(NC(=O)c3cc4cc(C(=O)NCCNC(=N)N)ccc4[nH]3)cc2[nH]1` [Compound 181, 1H-Indole-2,5-dicarboxylic acid 2-{[2-(3-carbamimidoylpropylcarbamoyl)-1H-indol-6-yl]amide} 5-[(2-guanidinoethyl)amide]] were, in that order, at most 45.5 µM and at most 50 µM.
Regarding `C/N=C(\NC)NCCCNC(=O)c1ccc2[nH]c(C(=O)Nc3ccc4[nH]c(C(=O)NCCN/C(=N/C)NC)cc4c3)cc2c1` [Compound 60, 1H-Indole-2,5-dicarboxylic acid 2-({2-[2-(N′,N″-dimethylguanidino)ethylcarbamoyl]-1H-indol-5-yl}amide) 5-{[3-(N′,N″-dimethylguanidino)propyl]amide}hydrochloride], the minimum inhibitory concentration (MIC) was at most 45.5 µM in the assay with bacteria and at most 50 µM in the assay on Aspergillus species.
Turning to `CN/C(=N\CCO)NCCNC(=O)c1ccc2[nH]c(C(=O)Nc3ccc4[nH]c(C(=O)NCCN/C(=N/CCO)NC)cc4c3)cc2c1` [Compound 92, 1H-Indole-2,5-dicarboxylic acid 2-({2-[N′-(2-hydroxyethyl)-N″-methylguanidino]ethyl}amide) 5-({2-(2-[N′-(2-hydroxyethyl)-N″-methylguanidino]ethylcarbamoyl)-1H-indol-5-yl}amide]dihydrochloride], the minimum inhibitory concentration (MIC) was at most 45.5 µM in the assay with bacteria and at most 50 µM in the assay with Aspergillus species.
The like results for `O=C(NCCNC1=NCCN1)c1ccc2[nH]c(C(=O)Nc3ccc4[nH]c(C(=O)NCCNC5=NCCN5)cc4c3)cc2c1` [Compound 57, 1H-In dole-2,5-dicarboxylic acid 5-{[2-(4,5-dihydro-1H-imidazol-2-ylamino)ethyl]amide} 2-({2-[2-(4,5-dihydro-1H-imidazol-2-ylamino)ethylcarbamoyl]-1H-indole-5-yl}amide)dihydrochloride] were, in that order, at most 45.5 µM and at most 50 µM.
Taken in the same sequence, the figures for `C/N=C(\N)NCCCNC(=O)c1ccc2[nH]c(C(=O)Nc3ccc4cc(C(=O)NCCN/C(N)=N/C)[nH]c4c3)cc2c1` [Compound 53, 1H-Indole-2,5-dicarboxylic acid 2-({2-[2-(N′-methylguanidino)ethylcarbamoyl]-1H-indole-6-yl}amide) 5-{[3-(N′-methylguanidino)propyl]amide}dihydrochloride] were at most 45.5 µM and at most 50 µM.

Values taken from patent US7141680B2, “Aromatic compounds possessing antifungal or antibacterial activity” (Genelabs Technologies, Inc., priority 2002, dated 2006).
